The nature of data set [1]: Bioavailability of nasal administration in beagle dogs (chlorogenic acid content in blood). The class given is in vivo. Conditions: male, dog, serum, other: nasal administration, 4 mg/kg chlorogenic acid. How it is done: • Six male beagle dogs, weighing 10-13 kg.
Six beagle dogs were randomly divided into groups and cross-administered with one week interval.
After fasting for 12 h, test animals were given chlorogenic acid, nasal powder, and aerosol at a dose of 4 mg/kg chlorogenic acid by nasal administration, and one additional dog was injected intravenously with chlorogenic acid at 4 mg/kg. 3 h after administration, dogs were allowed to feed;
10 min, 30 min, 60 min, 90 min, 120 min, 150 min after administration of beagle dogs, 3 mL intravenous blood was collected, heparin was used to anticoagulate, and then 1 mL serum was separated by centrifugation, and stored in a refrigerator at −20° C.
To 100 μL serum, were added methanol-0.2% phosphoric acid (80:20) solution (100 μL), the solution of puerarin in methanol as internal standard (50 mg/mL, 100 μL), and 100 μL methanol. The resultant solution was vortexed for 3 min, allowed to stand, and centrifuged (12000 rpm) for 10 min. The supernatant was collected as the serum test solution.
(§1) Octadecylsilane-bonded silica gel column (150 mm×4.6 mm, 5 μm) and guard column were used; mobile phase A (methanol) and mobile phase B (0.2% phosphoric acid) were used to perform desorption according to a gradient elution procedure; the detection wavelength was 325 nm; the flow rate was 1 mL/min; the column temperature was 40° C.
20 μL of the serum test solution was accurately measured, and injected into the liquid chromatograph, to record the chromatogram. The internal standard method was used to calculate the content of chlorogenic acid in serum with accompanying standard curve.

Data set [2] is described as follows: Blood-brain barrier permeability in rats after nasal administration (chlorogenic acid content in brain tissue). The class given is in vivo. Conditions: SD, rat, other: nasal administration, 20 mg/kg chlorogenic acid. How it is done: 150 SD rats, half male and half […], weighing 180-220 g.
SD rats were randomly divided into 5 groups, 30 rats for each group, and each test drug was administrated nasally at a dose of 20 mg/kg chlorogenic acid. The tissue samples were collected at 10 min, 30 min, 60 min, 90 min, 120 min, and 150 min after administration.
After administration, each experimental group was intraperitoneally injected with 1% pentobarbital sodium (0.2 mL) for deep anesthesia according to the time point, and then a needle was inserted from the left ventricle. The right ventricle was cut, and physiological saline was injected with a syringe for cardiac perfusion until the liver and spleen turned gray, and the brain tissue was taken out.
The brain tissue was placed in a homogenizer, to which was added 0.9% sodium chloride injection according to brain tissue: normal saline=1:1 (w/v) and then homogenized. To 200 μL homogenate, were added 50 mg/mL puerarin internal standard solution (200 μL) and methanol (200 μL), and then the mixture was vortexed and centrifuged. The supernatant was collected as the brain tissue test solution.
as §1
20 μL of the brain tissue test solution was accurately measured, and injected into the liquid chromatograph, to record the chromatogram. The internal standard method was used to calculate the content of chlorogenic acid in […] with accompanying standard curve.

The test system of data set [3] is nasopharyngeal carcinoma. Kind of data set: Inhibitory effect on nasopharyngeal carcinoma in rats: nasopharyngeal tissue paraffin microscopy. Format: in vivo, SD rats. The following applies: nasal administration, 20 mg/kg chlorogenic acid once a day, 5 rats per group, dinitrosopiperazine/phorbol ester induced, 20th week. An excerpt:
1.1.3 Positive Control Drug: Retinoic Acid
SD rats, half male and half […], weighing 180-220 g.
(§2) SD rats were randomly divided into 8 groups, 5 rats for each group, and the groups included nasal administration groups: chlorogenic acid bulk drug group, the nasal powder group of example 1, the nasal powder group of example 5, the aerosol group of example 6, and the aerosol group of example 7; intraperitoneal injection group of chlorogenic acid, positive control drug group, and blank group. Amongst, for nasal administration, each test drug group received corresponding drugs at a dose of 20 mg/kg chlorogenic acid daily, once a day; intraperitoneal injection group of chlorogenic acid was administrated at a dose of 20 mg/kg chlorogenic acid daily, once a day; retinoic acid positive drug group was administered intragastrically at a dose of 90 mg/kg daily, once a day. Rats in each experimental group were given dinitrosopiperazine and phorbol ester to promote cancer. Dinitrosopiperazine was injected into the armpit at a dose of 40 mg/kg to induce carcinogenesis, twice a week, for a total of 15 weeks. After dinitrosopiperazine was injected for two weeks, phorbol diester was injected at a dose of 50 ng/rat, twice a week, for a total of 15 weeks. The rats were sacrificed at the 20th week, rhinitis tissues were dissected, histopathology was observed, and telomerase was detected.
Rat nasopharyngeal tissues were fixed with 10% formaldehyde, decalcified in Jenkin's solution, further fixed in neutral formalin, and embedded in paraffin to make serial sections, then stained with hematoxylin and eosin and observed under a microscope.

The subject of data set [4] is Rat C6 glioma cells. The experiment in a line: Inhibitory effect of nasal administration and intraperitoneal injection on glioma in rats. The class given is in vivo, SD rats. The following applies: rat C6 brain glioma; for Tumor size: imaging on 21st day. How it is done: 1.1.3 Positive Control Drug: Temozolomide
40 SD rats, half male and half […], weighing 180-220 g.
Rat C6 glioma cells were incubated in 10% calf serum DMEM complete culture medium, subcultured in a monolayer culture method and allowed to grow to the required number of cells, and then subcultured once before inoculation. Cells in logarithmic growth phase are collected, digested with trypsin, centrifuged, and made to 1×10^4/10 μL cell suspension with Hanks solution, then stored in a refrigerator at 4° C. for inoculation.
Rats were anesthetized by intraperitoneal injection of 10% chloral hydrate, and the hair on the top of the rat's head was cut off and disinfected with iodine. The scalp was cut to expose the skull, and an electronic dental drill was used to open the cranium 1 mm behind the coronal suture and 3 mm to the right of the sagittal suture. 10 μL C6 cell suspension was injected, the bone hole was sealed with bone wax, and the incision was sutured. 5 days after tumor inoculation, the rats were examined by imaging, and tumorigenic rats were selected.
The tumorigenic rats were randomly divided into 8 groups, 5 rats for each group, and the groups included nasal administration groups: chlorogenic acid bulk drug group, the nasal powder group of example 1, the nasal powder group of example 5, the aerosol group of example 6, and the aerosol group of example 7; intraperitoneal injection group of chlorogenic acid, temozolomide positive control drug group, and blank group. For nasal administration, each test drug group received corresponding drugs at a dose of 20 mg/kg chlorogenic acid daily; intraperitoneal injection group of chlorogenic acid was administrated at a dose of 20 mg/kg chlorogenic acid daily; temozolomide positive control group was administered intragastrically at a dose of 25 mg/kg daily. Each test group started to be given the drug on the 6th day after tumor inoculation for 20 consecutive days, and on the 21st day each drug group and the blank group were imaged to check the tumor size.
SPSS software was used to perform t test, analysis of variance and multiple comparisons test.
The post-processing platform was used to measure the tumor volume on the 3DFSPGR sequence, and the tumor inhibition rate was calculated.

The subject of data set [5] is telomerase. The experiment in a line: Telomerase detection in nasopharyngeal tissue of rats. Format: in vivo, SD rats. Conditions: rat nasopharyngeal tissue homogenate, Telomerase ELISA-PCR kit, 20th week. The protocol:
as §2, with “Dinitrosopiperazine was injected into the armpit at a dose of 40 mg/kg to induce carcinogenesis, twice a week, for a total of 15 weeks. After dinitrosopiperazine was injected for two weeks, phorbol diester was injected at a dose of 50 ng/rat, twice a week, for a total of 15 weeks.” left out
Nasopharyngeal tissue homogenate was weighed and centrifuged, and then the supernatant was collected and processed according to Telomerase ELISA-PCR kit instruction (Shanghai Boehringer Mannheim Co.). After obtaining PCR reaction product, the telomerase activity was quantitatively detected, followed by concentration and electrophoresis on polyacrylamide gel, then staining with silver nitrate.
(In an ELISA, binding on a coated surface is turned into a signal by an enzyme label.)

The mark [6] stands for this setting: 10 min after nasal administration.
Where [7] appears, read: 30 min after nasal administration.
Setting [8] is: 60 min after nasal administration.
Where [9] appears, read: 90 min after nasal administration.
Where [10] appears, read: 120 min after nasal administration.
Setting [11] is: 150 min after nasal administration.
[12] abbreviates: listed as chlorogenic acid raw material.
[13] abbreviates: nasal administration, 20 mg/kg chlorogenic acid daily for 20 days.
The mark [14] stands for this setting: intraperitoneal injection, 25 mg/kg daily for 20 days.

Turning to `O=C(/C=C/c1ccc(O)c(O)c1)O[C@@H]1C[C@](O)(C(=O)O)C[C@@H](O)[C@H]1O` [Chlorogenic acid bulk drug, Chlorogenic acid], the concentration at 10 min in data set [1] (setting [6]) came out at 1020 ng/mL; in data set [2] (setting [6]), 0 ng/g. The values for the concentration at 30 min in data set [1] (setting [7]) and in data set [2] (setting [7]) were 5740 ng/mL and 320 ng/g, respectively. Also, the concentration at 60 min turned out to be 2200 ng/mL in data set [1] (setting [8]) and 860 ng/g in data set [2] (setting [8]). Besides, the concentration at 90 min in data set [1] (setting [9]) was determined as 980 ng/mL; in data set [2] (setting [9]), 650 ng/g. The concentration at 120 min turned out to be 520 ng/mL in data set [1] (setting [10]) and 320 ng/g in data set [2] (setting [10]). In addition, the concentration at 150 min in data set [1] (setting [11]) was 220 ng/mL; in data set [2] (setting [11]), 130 ng/g. Also, the figures for the “Dysplastic tissue (number of rats, nasopharyngeal tissue paraffin microscopy)” value in data set [3] and in data set [3] (setting [12]) were 3 and “three”, respectively. Also, in data set [3], the “Normal tissue (number of rats, nasopharyngeal tissue paraffin microscopy)” value turned out to be 1. Further, the “Simple hyperplasia (number of rats, nasopharyngeal tissue paraffin microscopy)” value is 1 in data set [3] and “one” in data set [3] (setting [12]). In data set [4] (setting [13]), this compound showed a Tumor inhibition rate of 22.35%. The compound further returned a Tumor size in data set [4] (setting [13]) of 48.35 ± 4.83 mm3. This compound had a telomerase activity in data set [5] (nasal administration, 20 mg/kg chlorogenic acid once a day) of 0.56±0.17.

For `CC1=C(/C=C/C(C)=C/C=C/C(C)=C/C(=O)O)C(C)(C)CCC1` [Retinoic acid], in data set [5] (intragastric administration, 90 mg/kg once a day), the telomerase activity was found to be 0.22±0.12.

In data set [4] (setting [14]), `Cn1nnc2c(C(N)=O)ncn2c1=O` [Temozolomide] gave a Tumor inhibition rate of 39.57% and a Tumor size of 37.63 ± 3.21 mm3.
